Assays:
PfCRT^3D7 [1] = molecular target: T1, PfCRT^3D7 (Plasmodium falciparum, UniProt Q8IBZ9); experiment: cell-based; assay type: cell-based; conditions: PfCRT3D7 oocytes, total [3H]CQ transport, normalised to the oocyte type control
Procedure, shortened: (§1)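 Assay buffer ND96 (10 mM MES, 10 mM Tris-base) held at pH 5.5 to mimic vacuole lumen; uptake measured inward from this acidic medium over 1.5 h at 27.5 °C.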

PfCRT^Dd2 [2] = molecular target: T2, PfCRT^Dd2 (Plasmodium falciparum, UniProt Q9N623, A220S/I356T/K76T/M74I/N326S/N75E/Q271E/R371I); experiment: cell-based; assay type: cell-based; conditions: for Uptake of [3H]CQ (% PfCRTDd2 control), trans-stimulation / PfCRT-mediated [3H]CQ transport, trans-stimulation (% PfCRTDd2 control): PfCRTDd2 oocytes; for Uptake of [3H]CQ (% PfCRTDd2 control), trans-stimulation: total [3H]CQ transport, normalised to the oocyte type control; for PfCRT-mediated [3H]CQ transport, trans-stimulation (% PfCRTDd2 control): normalised to oocyte type control; for [3H]CQ transport (% PfCRTDd2 control), trans-stimulation, PfCRTDd2: PfCRT-mediated component (background subtracted), mean ± SEM, SEM
T2 sequence (Q9N623 whole entry A220S/I356T/K76T/M74I/N326S/N75E/Q271E/R371I): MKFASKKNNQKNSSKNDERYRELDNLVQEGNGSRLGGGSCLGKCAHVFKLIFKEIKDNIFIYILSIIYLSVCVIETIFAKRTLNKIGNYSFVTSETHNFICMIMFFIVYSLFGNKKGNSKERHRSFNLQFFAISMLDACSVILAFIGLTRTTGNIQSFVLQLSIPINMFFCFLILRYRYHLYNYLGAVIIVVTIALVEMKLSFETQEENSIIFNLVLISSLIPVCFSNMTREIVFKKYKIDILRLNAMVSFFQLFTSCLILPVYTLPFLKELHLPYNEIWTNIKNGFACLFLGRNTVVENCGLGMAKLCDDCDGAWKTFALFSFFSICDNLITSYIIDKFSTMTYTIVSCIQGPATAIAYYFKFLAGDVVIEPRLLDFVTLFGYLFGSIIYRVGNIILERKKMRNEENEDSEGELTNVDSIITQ
Procedure, shortened: (§2)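 Transport measured in Xenopus oocytes expressing the transporters, 1.5 h at 27.5 °C in ND96 pH 5.5 unless noted. For trans-stimulation, VF-6 injected in 25 nL ND96 at pH 5.0–7.0 or Na^+-free (choline) buffer; intracellular levels based on ~400 nL oocyte volume. Ten oocytes per treatment, ≥4 experiments.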

PfCRT^Ecu1110 [3] = molecular target: T3, PfCRT^Ecu1110 (Plasmodium falciparum, UniProt Q9N623, A220S/I356L/K76T/N326D); experiment: cell-based; assay type: cell-based; conditions: for Uptake of [3H]CQ (% PfCRTEcu1110 control), trans-stimulation / PfCRT-mediated [3H]CQ transport, trans-stimulation (% PfCRTEcu1110 control): PfCRTEcu1110 oocytes; for Uptake of [3H]CQ (% PfCRTEcu1110 control), trans-stimulation: total [3H]CQ transport, normalised to the oocyte type control; for PfCRT-mediated [3H]CQ transport, trans-stimulation (% PfCRTEcu1110 control): normalised to oocyte type control; for [3H]CQ transport (% PfCRTDd2 control), trans-stimulation, PfCRTEcu1110: PfCRT-mediated component (background subtracted), sheet title says normalised to PfCRTDd2 control, mean ± SEM, SEM
T3 sequence (Q9N623 whole entry A220S/I356L/K76T/N326D): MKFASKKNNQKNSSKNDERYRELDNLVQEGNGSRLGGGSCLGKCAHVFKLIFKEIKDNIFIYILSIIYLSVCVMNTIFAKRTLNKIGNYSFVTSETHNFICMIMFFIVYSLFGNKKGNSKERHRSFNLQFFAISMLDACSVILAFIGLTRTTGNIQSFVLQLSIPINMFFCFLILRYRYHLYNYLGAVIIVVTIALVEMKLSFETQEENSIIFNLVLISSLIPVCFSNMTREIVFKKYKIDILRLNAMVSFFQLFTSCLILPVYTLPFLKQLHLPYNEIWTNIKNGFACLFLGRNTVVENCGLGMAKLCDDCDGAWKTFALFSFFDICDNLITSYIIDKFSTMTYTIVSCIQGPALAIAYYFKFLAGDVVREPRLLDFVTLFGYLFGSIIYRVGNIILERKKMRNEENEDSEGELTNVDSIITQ
Procedure, shortened: as §2

PfCRT^3D7 [4] = molecular target: T1, PfCRT^3D7; experiment: cell-based; assay type: cell-based; conditions: PfCRT3D7 oocytes; for Uptake of [3H]CQ (% PfCRT3D7 control), trans-stimulation: total [3H]CQ transport, normalised to the oocyte type control; for PfCRT-mediated [3H]CQ transport, trans-stimulation (% PfCRT3D7 control): normalised to oocyte type control
Procedure, shortened: as §2

PfNT1 = molecular target: T4, PfNT1 (Plasmodium falciparum, UniProt Q8IDM6); experiment: cell-based; assay type: cell-based; conditions: PfNT1 oocytes, total [3H]CQ transport, normalised to the oocyte type control
T4 construct: expressed in transfected cells; host or cells: Xenopus laevis oocytes (stage V-VI), cRNA-injected
T4 sequence (Q8IDM6 whole entry): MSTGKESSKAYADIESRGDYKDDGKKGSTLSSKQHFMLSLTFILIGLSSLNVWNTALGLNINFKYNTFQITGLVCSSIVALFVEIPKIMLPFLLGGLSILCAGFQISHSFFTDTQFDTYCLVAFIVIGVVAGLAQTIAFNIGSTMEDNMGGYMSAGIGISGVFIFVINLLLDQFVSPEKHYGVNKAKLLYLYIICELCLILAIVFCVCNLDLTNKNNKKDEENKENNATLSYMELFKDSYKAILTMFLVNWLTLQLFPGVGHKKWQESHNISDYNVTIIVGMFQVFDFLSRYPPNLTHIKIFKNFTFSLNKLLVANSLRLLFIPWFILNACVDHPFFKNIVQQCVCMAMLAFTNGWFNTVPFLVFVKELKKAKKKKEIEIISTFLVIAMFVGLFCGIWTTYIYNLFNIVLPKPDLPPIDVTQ
Procedure, shortened: as §2

non-expressing oocytes [5] = experiment: cells; assay type: cell-based, Xenopus laevis; conditions: non-expressing oocytes, total [3H]CQ transport, normalised to the oocyte type control
Procedure, shortened: as §1

non-expressing oocytes [6] = assay type: cell-based, Xenopus laevis; conditions: non-expressing oocytes; [test solute]i = 45 mM (30 mM for some solutes due to solubility); total [3H]CQ transport, normalised to the oocyte type control
Procedure, shortened: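 Oocytes (ten per treatment, ≥4 independent frogs/days) were preloaded by injecting VF-6 in 25 nL ND96 at pH 5.0, 5.5, 6.0 or 7.0, or Na^+-free choline buffer, then uptake run 1.5 h, 27.5 °C, ND96 pH 5.5 by default. Internal concentrations assumed ~400 nL oocyte volume.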

PfCRT^Dd2 [7] = molecular target: T2, PfCRT^Dd2; experiment: [3H]CQ uptake into Xenopus oocytes, cis-inhibition by unlabelled solute; assay type: cell-based; conditions: PfCRTDd2 oocytes, background [3H]CQ accumulation subtracted, normalised to oocyte type control
Procedure, shortened: as §1

PfCRT^Ecu1110 [8] = molecular target: T3, PfCRT^Ecu1110; experiment: as above; assay type: cell-based; conditions: for Uptake of [3H]CQ (% PfCRTEcu1110 control), cis-inhibition / PfCRT-mediated [3H]CQ transport, cis-inhibition (% PfCRTEcu1110 control): PfCRTEcu1110 oocytes; for Uptake of [3H]CQ (% PfCRTEcu1110 control), cis-inhibition: total [3H]CQ transport, normalised to the oocyte type control; for PfCRT-mediated [3H]CQ transport, cis-inhibition (% PfCRTEcu1110 control): background [3H]CQ accumulation subtracted, normalised to oocyte type control; for [3H]CQ transport (% PfCRTEcu1110 control), cis-inhibition, PfCRTEcu1110: PfCRT-mediated component (background subtracted), sheet title says normalised to PfCRTDd2 control, mean ± SEM, SEM
Procedure, shortened: as §1

[9] = [test solute]i = 45 mM (30 mM for some solutes due to solubility)
[10] = [test solute]i = 5 mM (intracellular)
[11] = [test solute]i = 45 mM (intracellular; 30 mM for some solutes due to solubility)
[12] = [test solute]i = 5 mM (injected)

T1 sequence (Q8IBZ9 59-398): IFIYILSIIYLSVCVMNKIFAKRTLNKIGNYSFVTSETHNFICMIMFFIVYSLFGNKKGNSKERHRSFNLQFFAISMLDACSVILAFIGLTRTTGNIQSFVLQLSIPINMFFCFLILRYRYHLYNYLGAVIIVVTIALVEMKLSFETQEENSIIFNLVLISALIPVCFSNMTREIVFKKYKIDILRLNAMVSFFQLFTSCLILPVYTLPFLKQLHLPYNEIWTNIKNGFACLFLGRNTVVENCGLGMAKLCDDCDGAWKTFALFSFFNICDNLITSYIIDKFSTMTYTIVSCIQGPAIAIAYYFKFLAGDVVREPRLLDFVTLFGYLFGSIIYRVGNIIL

PVQA [PA-4]
Uptake of [3H]CQ (% PfCRT3D7 control), cis-inhibition (PfCRT^3D7 [1]; [test solute] = 0.5 mM): 99 ± 5.3 % PfCRT3D7 control | Uptake of [3H]CQ (% PfCRT3D7 control), cis-inhibition (PfCRT^3D7 [1]; [test solute] = 1 mM): 99 ± 4.8 % PfCRT3D7 control | Uptake of [3H]CQ (% PfCRT3D7 control), cis-inhibition (PfCRT^3D7 [1]; [test solute] = 2 mM): 99 ± 5.7 % PfCRT3D7 control | Uptake of [3H]CQ (% PfCRTDd2 control), trans-stimulation (PfCRT^Dd2 [2]; [test solute]i = 5 mM): 98 ± 2.2 % PfCRTDd2 control | Uptake of [3H]CQ (% PfCRTDd2 control), trans-stimulation (PfCRT^Dd2 [2]; [9]): 115 ± 1.1 % PfCRTDd2 control | PfCRT-mediated [3H]CQ transport, trans-stimulation (% PfCRTDd2 control) (PfCRT^Dd2 [2]; [10]): 96 ± 3.2 % PfCRTDd2 control | PfCRT-mediated [3H]CQ transport, trans-stimulation (% PfCRTDd2 control) (PfCRT^Dd2 [2]; [11]): 110 ± 0.9 % PfCRTDd2 control | [3H]CQ transport (% PfCRTDd2 control), trans-stimulation, PfCRTDd2 (PfCRT^Dd2 [2]; [12]): 96 ± 3.2 % PfCRTDd2 control | [3H]CQ transport (% PfCRTDd2 control), trans-stimulation, PfCRTDd2 (PfCRT^Dd2 [2]; [9]): 110 ± 0.9 % PfCRTDd2 control | Uptake of [3H]CQ (% PfCRTEcu1110 control), trans-stimulation (PfCRT^Ecu1110 [3]; [test solute]i = 5 mM): 122 ± 3.0 % PfCRTEcu1110 control | Uptake of [3H]CQ (% PfCRTEcu1110 control), trans-stimulation (PfCRT^Ecu1110 [3]; [9]): 133 ± 3.5 % PfCRTEcu1110 control | PfCRT-mediated [3H]CQ transport, trans-stimulation (% PfCRTEcu1110 control) (PfCRT^Ecu1110 [3]; [10]): 117 ± 2.4 % PfCRTEcu1110 control | PfCRT-mediated [3H]CQ transport, trans-stimulation (% PfCRTEcu1110 control) (PfCRT^Ecu1110 [3]; [11]): 127 ± 1.9 % PfCRTEcu1110 control | [3H]CQ transport (% PfCRTDd2 control), trans-stimulation, PfCRTEcu1110 (PfCRT^Ecu1110 [3]; [12]): 35 ± 1.3 % PfCRTEcu1110 control | [3H]CQ transport (% PfCRTDd2 control), trans-stimulation, PfCRTEcu1110 (PfCRT^Ecu1110 [3]; [9]): 38 ± 1.1 % PfCRTEcu1110 control | Uptake of [3H]CQ (% PfCRT3D7 control), trans-stimulation (PfCRT^3D7 [4]; [test solute]i = 5 mM): 130 ± 4.2 % PfCRT3D7 control | Uptake of [3H]CQ (% PfCRT3D7 control), trans-stimulation (PfCRT^3D7 [4]; [9]): 149 ± 5.8 % PfCRT3D7 control | PfCRT-mediated [3H]CQ transport, trans-stimulation (% PfCRT3D7 control) (PfCRT^3D7 [4]; [10]): 124 ± 3.2 % PfCRT3D7 control | PfCRT-mediated [3H]CQ transport, trans-stimulation (% PfCRT3D7 control) (PfCRT^3D7 [4]; [11]): 141 ± 4.0 % PfCRT3D7 control | Uptake of [3H]CQ (% PfNT1 control), trans-stimulation (PfNT1; [test solute]i = 5 mM): 96 ± 3.5 % PfNT1 control | Uptake of [3H]CQ (% PfNT1 control), trans-stimulation (PfNT1; [9]): 98 ± 3.4 % PfNT1 control | Uptake of [3H]CQ (% non-expressing oocyte control), cis-inhibition (non-expressing oocytes [5]; [test solute] = 0.5 mM): 98 ± 3.0 % non-expressing oocyte control | Uptake of [3H]CQ (% non-expressing oocyte control), cis-inhibition (non-expressing oocytes [5]; [test solute] = 1 mM): 100 ± 4.7 % non-expressing oocyte control | Uptake of [3H]CQ (% non-expressing oocyte control), cis-inhibition (non-expressing oocytes [5]; [test solute] = 2 mM): 98 ± 3.9 % non-expressing oocyte control | Uptake of [3H]CQ (% non-expressing oocyte control), trans-stimulation (non-expressing oocytes [6]): 100 ± 2.6 % non-expressing oocyte control | PfCRT-mediated [3H]CQ transport, cis-inhibition (% PfCRTDd2 control) (PfCRT^Dd2 [7]; [test solute] = 0.5 mM): 51 ± 3.0 % PfCRTDd2 control | PfCRT-mediated [3H]CQ transport, cis-inhibition (% PfCRTDd2 control) (PfCRT^Dd2 [7]; [test solute] = 1 mM): 41 ± 2.9 % PfCRTDd2 control | PfCRT-mediated [3H]CQ transport, cis-inhibition (% PfCRTDd2 control) (PfCRT^Dd2 [7]; [test solute] = 2 mM): 31 ± 1.2 % PfCRTDd2 control | Uptake of [3H]CQ (% PfCRTEcu1110 control), cis-inhibition (PfCRT^Ecu1110 [8]; [test solute] = 0.5 mM): 65 ± 2.9 % PfCRTEcu1110 control | Uptake of [3H]CQ (% PfCRTEcu1110 control), cis-inhibition (PfCRT^Ecu1110 [8]; [test solute] = 1 mM): 59 ± 3.6 % PfCRTEcu1110 control | Uptake of [3H]CQ (% PfCRTEcu1110 control), cis-inhibition (PfCRT^Ecu1110 [8]; [test solute] = 2 mM): 43 ± 2.5 % PfCRTEcu1110 control | PfCRT-mediated [3H]CQ transport, cis-inhibition (% PfCRTEcu1110 control) (PfCRT^Ecu1110 [8]; [test solute] = 0.5 mM): 61 ± 0.4 % PfCRTEcu1110 control | PfCRT-mediated [3H]CQ transport, cis-inhibition (% PfCRTEcu1110 control) (PfCRT^Ecu1110 [8]; [test solute] = 1 mM): 52 ± 2.6 % PfCRTEcu1110 control | PfCRT-mediated [3H]CQ transport, cis-inhibition (% PfCRTEcu1110 control) (PfCRT^Ecu1110 [8]; [test solute] = 2 mM): 39 ± 2.1 % PfCRTEcu1110 control | [3H]CQ transport (% PfCRTEcu1110 control), cis-inhibition, PfCRTEcu1110 (PfCRT^Ecu1110 [8]; [test solute] = 1 mM): 16 ± 0.1 % PfCRTEcu1110 control | [3H]CQ transport (% PfCRTEcu1110 control), cis-inhibition, PfCRTEcu1110 (PfCRT^Ecu1110 [8]; [test solute] = 2 mM): 12 ± 0.2 % PfCRTEcu1110 control

— article PMC7413254 (Nature Communications, 2020)
